ChEMBL document CHEMBL1201862, “PubChem BioAssay data set” (2004)
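Assay format: 96-well plates, 48-hour exposure. Abbreviation: GI50, concentration required for 50% inhibition of growth.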 Active and inactive are the calls of the source. Rule as the data show it: active = GI50 up to about 1.1 µM and inactive = higher.

Tests used:
Assay in all cases: growth of human tumour cells (NCI), 48 h
T47D = test system: T47D
UACC-257 = test system: UACC-257
NCI/ADR-RES = test system: NCI/ADR-RES
U-251 = test system: U-251
SK-OV-3 = test system: SK-OV-3
Malme-3M = test system: Malme-3M
K562 = test system: K562
SN12C = test system: SN12C
NCI-H460 = test system: NCI-H460
TK-10 = test system: TK-10
NCI-H522 = test system: NCI-H522
SR = test system: SR
A549 = test system: A549
COLO 205 = test system: COLO 205
NCI-H226 = test system: NCI-H226
HCT-15 = test system: HCT-15
SNB-19 = test system: SNB-19
CAKI-1 = test system: CAKI-1
IGROV-1 = test system: IGROV-1
MOLT-4 = test system: MOLT-4
BT-549 = test system: BT-549
SF-539 = test system: SF-539
CCRF-CEM = test system: CCRF-CEM
HOP-62 = test system: HOP-62
MCF7 = test system: MCF7
OVCAR-3 = test system: OVCAR-3
HCT-116 = test system: HCT-116
RXF 393 = test system: RXF 393
PC-3 = test system: PC-3
MDA-MB-231 = test system: MDA-MB-231
UACC-62 = test system: UACC-62
KM12 = test system: KM12
ACHN = test system: ACHN
SF-295 = test system: SF-295
OVCAR-8 = test system: OVCAR-8
SNB-75 = test system: SNB-75
SF-268 = test system: SF-268
OVCAR-4 = test system: OVCAR-4
HT-29 = test system: HT-29
NCI-H23 = test system: NCI-H23
MDA-N = test system: MDA-N
Hs-578T = test system: Hs-578T
SK-MEL-28 = test system: SK-MEL-28
A498 = test system: A498
DU-145 = test system: DU-145
M14 = test system: M14
SW-620 = test system: SW-620
SK-MEL-5 = test system: SK-MEL-5
786-0 = test system: 786-0
HL-60 = test system: HL-60
EKVX = test system: EKVX
OVCAR-5 = test system: OVCAR-5
UO-31 = test system: UO-31
MDA-MB-435 = test system: MDA-MB-435
HOP-92 = test system: HOP-92
LOX IMVI = test system: LOX IMVI
SK-MEL-2 = test system: SK-MEL-2
RPMI-8226 = test system: RPMI-8226
HCC 2998 = test system: HCC 2998

[O-][S+](c1ccccc1)c1ccc(/N=N/O)nc1 (stereo not drawn)
GI50 (T47D): 82.6 µM (inactive) | GI50 (UACC-257): > 100 µM (inactive) | GI50 (NCI/ADR-RES): > 100 µM (inactive) | GI50 (U-251): > 100 µM (inactive) | GI50 (SK-OV-3): > 100 µM (inactive) | GI50 (Malme-3M): 0.492 µM (active) | GI50 (K562): > 100 µM (inactive) | GI50 (SN12C): > 100 µM (inactive) | GI50 (NCI-H460): > 100 µM (inactive) | GI50 (TK-10): > 100 µM (inactive) | GI50 (NCI-H522): > 100 µM (inactive) | GI50 (SR): > 100 µM (inactive) | GI50 (A549): > 100 µM (inactive) | GI50 (COLO 205): > 100 µM (inactive) | GI50 (NCI-H226): 69.8 µM (inactive) | GI50 (HCT-15): > 100 µM | GI50 (SNB-19): > 100 µM (inactive) | GI50 (CAKI-1): > 100 µM (inactive) | GI50 (IGROV-1): > 100 µM (inactive) | GI50 (MOLT-4): > 100 µM (inactive) | GI50 (BT-549): > 100 µM (inactive) | GI50 (SF-539): > 100 µM (inactive) | GI50 (CCRF-CEM): > 100 µM (inactive) | GI50 (HOP-62): > 100 µM (inactive) | GI50 (MCF7): > 100 µM (inactive) | GI50 (OVCAR-3): > 100 µM (inactive) | GI50 (HCT-116): > 100 µM (inactive) | GI50 (RXF 393): 0.213 µM (active) | GI50 (PC-3): 78.5 µM (inactive) | GI50 (MDA-MB-231): > 100 µM (inactive) | GI50 (UACC-62): > 100 µM (inactive) | GI50 (KM12): > 100 µM (inactive) | GI50 (ACHN): > 100 µM (inactive) | GI50 (SF-295): > 100 µM (inactive) | GI50 (OVCAR-8): > 100 µM (inactive) | GI50 (SNB-75): > 100 µM (inactive) | GI50 (SF-268): > 100 µM (inactive) | GI50 (OVCAR-4): > 100 µM (inactive) | GI50 (HT-29): > 100 µM (inactive) | GI50 (NCI-H23): > 100 µM (inactive) | GI50 (MDA-N): > 100 µM (inactive) | GI50 (Hs-578T): > 100 µM (inactive) | GI50 (SK-MEL-28): > 100 µM (inactive) | GI50 (A498): > 100 µM (inactive) | GI50 (DU-145): > 100 µM (inactive) | GI50 (M14): > 100 µM (inactive) | GI50 (SW-620): > 100 µM (inactive) | GI50 (SK-MEL-5): > 100 µM (inactive) | GI50 (786-0): > 100 µM (inactive) | GI50 (HL-60): > 100 µM (inactive) | GI50 (EKVX): > 100 µM (inactive) | GI50 (OVCAR-5): > 100 µM (inactive) | GI50 (UO-31): > 100 µM (inactive)

CC12CCCC(C(=O)O)(C1)[C@H](C(C)(C)C(=O)O)CC2 (stereo partly drawn)
GI50 (T47D): > 100 µM (inactive) | GI50 (UACC-257): > 100 µM (inactive) | GI50 (NCI/ADR-RES): > 100 µM (inactive) | GI50 (U-251): > 100 µM (inactive) | GI50 (SK-OV-3): > 100 µM (inactive) | GI50 (Malme-3M): > 100 µM (inactive) | GI50 (K562): > 100 µM (inactive) | GI50 (SN12C): > 100 µM (inactive) | GI50 (NCI-H460): > 100 µM (inactive) | GI50 (TK-10): > 100 µM (inactive) | GI50 (NCI-H522): > 100 µM (inactive) | GI50 (SR): > 100 µM (inactive) | GI50 (A549): > 100 µM (inactive) | GI50 (COLO 205): > 100 µM (inactive) | GI50 (NCI-H226): > 100 µM (inactive) | GI50 (HCT-15): > 100 µM | GI50 (SNB-19): > 100 µM (inactive) | GI50 (CAKI-1): > 100 µM (inactive) | GI50 (IGROV-1): > 100 µM (inactive) | GI50 (MOLT-4): > 100 µM (inactive) | GI50 (BT-549): > 100 µM (inactive) | GI50 (MDA-MB-435): > 100 µM (inactive) | GI50 (CCRF-CEM): > 100 µM (inactive) | GI50 (HOP-62): > 100 µM (inactive) | GI50 (MCF7): > 100 µM (inactive) | GI50 (OVCAR-3): > 100 µM (inactive) | GI50 (HOP-92): > 100 µM (inactive) | GI50 (HCT-116): > 100 µM (inactive) | GI50 (PC-3): > 100 µM (inactive) | GI50 (UACC-62): > 100 µM (inactive) | GI50 (KM12): > 100 µM (inactive) | GI50 (ACHN): > 100 µM (inactive) | GI50 (SF-295): > 100 µM (inactive) | GI50 (OVCAR-8): > 100 µM (inactive) | GI50 (LOX IMVI): > 100 µM (inactive) | GI50 (SNB-75): > 100 µM (inactive) | GI50 (SF-268): > 100 µM (inactive) | GI50 (SK-MEL-2): > 100 µM (inactive) | GI50 (OVCAR-4): > 100 µM (inactive) | GI50 (HT-29): > 100 µM (inactive) | GI50 (NCI-H23): > 100 µM (inactive) | GI50 (MDA-N): > 100 µM (inactive) | GI50 (RPMI-8226): > 100 µM (inactive) | GI50 (Hs-578T): > 100 µM (inactive) | GI50 (SK-MEL-28): > 100 µM (inactive) | GI50 (DU-145): > 100 µM (inactive) | GI50 (M14): > 100 µM (inactive) | GI50 (SW-620): > 100 µM (inactive) | GI50 (SK-MEL-5): > 100 µM (inactive) | GI50 (786-0): > 100 µM (inactive) | GI50 (HL-60): > 100 µM (inactive) | GI50 (EKVX): > 100 µM (inactive) | GI50 (OVCAR-5): > 100 µM (inactive) | GI50 (UO-31): > 100 µM (inactive)

CNNC1=NS(=O)(=O)c2cc(C)c(Cl)cc2S1
GI50 (T47D): > 10 µM (inactive) | GI50 (UACC-257): > 10 µM (inactive) | GI50 (NCI/ADR-RES): > 10 µM (inactive) | GI50 (U-251): > 10 µM (inactive) | GI50 (SK-OV-3): > 10 µM (inactive) | GI50 (Malme-3M): > 10 µM (inactive) | GI50 (K562): > 10 µM (inactive) | GI50 (SN12C): > 10 µM (inactive) | GI50 (NCI-H460): > 10 µM (inactive) | GI50 (TK-10): > 10 µM (inactive) | GI50 (NCI-H522): > 10 µM (inactive) | GI50 (A549): > 10 µM (inactive) | GI50 (COLO 205): > 10 µM (inactive) | GI50 (NCI-H226): > 10 µM (inactive) | GI50 (HCT-15): > 10 µM | GI50 (SNB-19): > 10 µM (inactive) | GI50 (CAKI-1): > 10 µM (inactive) | GI50 (IGROV-1): > 10 µM (inactive) | GI50 (MOLT-4): > 10 µM (inactive) | GI50 (BT-549): > 10 µM (inactive) | GI50 (SF-539): > 10 µM (inactive) | GI50 (MDA-MB-435): > 10 µM (inactive) | GI50 (CCRF-CEM): > 10 µM (inactive) | GI50 (HOP-62): > 10 µM (inactive) | GI50 (OVCAR-3): > 10 µM (inactive) | GI50 (HCT-116): > 10 µM (inactive) | GI50 (RXF 393): > 10 µM (inactive) | GI50 (PC-3): > 10 µM (inactive) | GI50 (MDA-MB-231): > 10 µM (inactive) | GI50 (UACC-62): > 10 µM (inactive) | GI50 (KM12): > 10 µM (inactive) | GI50 (ACHN): > 10 µM (inactive) | GI50 (SF-295): > 10 µM (inactive) | GI50 (OVCAR-8): > 10 µM (inactive) | GI50 (LOX IMVI): > 10 µM (inactive) | GI50 (SNB-75): > 10 µM (inactive) | GI50 (SF-268): > 10 µM (inactive) | GI50 (HCC 2998): > 10 µM (inactive) | GI50 (SK-MEL-2): > 10 µM (inactive) | GI50 (OVCAR-4): > 10 µM (inactive) | GI50 (HT-29): > 10 µM (inactive) | GI50 (NCI-H23): > 10 µM (inactive) | GI50 (MDA-N): > 10 µM (inactive) | GI50 (RPMI-8226): > 10 µM (inactive) | GI50 (Hs-578T): > 10 µM (inactive) | GI50 (SK-MEL-28): > 10 µM (inactive) | GI50 (A498): > 10 µM (inactive) | GI50 (DU-145): > 10 µM (inactive) | GI50 (M14): > 10 µM (inactive) | GI50 (SW-620): > 10 µM (inactive) | GI50 (SK-MEL-5): > 10 µM (inactive) | GI50 (786-0): > 10 µM (inactive) | GI50 (HL-60): > 10 µM (inactive) | GI50 (EKVX): > 10 µM (inactive) | GI50 (OVCAR-5): > 10 µM (inactive) | GI50 (UO-31): 0.0344 µM (active)
